From ChEMBL document CHEMBL5465560, “Selectivity Literature for EUbOPEN Chemogenomic Library” (2024)

Experiments:
[1] = biological target: T1, Serine/threonine-protein kinase TAO2 (Homo sapiens) (UniProt Q9UL54); experiment: Selectivity interaction (KinomeScan (DiscoverX)) EUB0001049a TAOK2; conditions: at 1 µM
T1 sequence (whole entry): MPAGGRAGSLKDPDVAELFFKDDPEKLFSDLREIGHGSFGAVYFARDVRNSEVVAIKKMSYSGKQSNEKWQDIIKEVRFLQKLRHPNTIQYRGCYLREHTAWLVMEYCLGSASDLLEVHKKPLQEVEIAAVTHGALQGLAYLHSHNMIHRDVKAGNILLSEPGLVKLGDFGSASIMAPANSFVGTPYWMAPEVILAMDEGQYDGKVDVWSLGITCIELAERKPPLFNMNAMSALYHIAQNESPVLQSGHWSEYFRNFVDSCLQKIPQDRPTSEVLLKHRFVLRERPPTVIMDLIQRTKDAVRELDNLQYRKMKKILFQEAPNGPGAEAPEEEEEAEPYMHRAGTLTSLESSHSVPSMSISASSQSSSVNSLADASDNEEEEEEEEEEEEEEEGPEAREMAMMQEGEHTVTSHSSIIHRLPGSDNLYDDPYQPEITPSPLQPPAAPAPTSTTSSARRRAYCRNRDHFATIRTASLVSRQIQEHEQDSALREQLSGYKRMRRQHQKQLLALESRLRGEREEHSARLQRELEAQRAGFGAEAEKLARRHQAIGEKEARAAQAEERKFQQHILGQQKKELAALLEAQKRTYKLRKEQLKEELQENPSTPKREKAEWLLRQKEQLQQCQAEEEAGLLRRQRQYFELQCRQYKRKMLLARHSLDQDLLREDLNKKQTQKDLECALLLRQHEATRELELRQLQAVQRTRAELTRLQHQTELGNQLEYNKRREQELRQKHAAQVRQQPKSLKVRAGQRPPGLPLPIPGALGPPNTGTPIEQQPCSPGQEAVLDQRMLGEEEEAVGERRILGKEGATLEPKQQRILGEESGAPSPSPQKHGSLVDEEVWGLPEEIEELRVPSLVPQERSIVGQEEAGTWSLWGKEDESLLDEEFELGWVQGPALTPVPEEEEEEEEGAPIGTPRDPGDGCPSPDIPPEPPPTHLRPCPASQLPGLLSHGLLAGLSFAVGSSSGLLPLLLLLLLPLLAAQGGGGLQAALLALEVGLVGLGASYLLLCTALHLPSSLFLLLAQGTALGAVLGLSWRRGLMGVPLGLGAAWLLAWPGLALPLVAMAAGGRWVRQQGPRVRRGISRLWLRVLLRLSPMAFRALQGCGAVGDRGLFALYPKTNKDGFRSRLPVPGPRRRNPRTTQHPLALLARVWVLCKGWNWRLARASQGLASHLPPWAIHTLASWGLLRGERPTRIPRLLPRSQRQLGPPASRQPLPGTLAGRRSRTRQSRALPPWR

[2] = biological target: T2, 3-phosphoinositide-dependent protein kinase 1 (Homo sapiens) (UniProt O15530); experiment: Selectivity interaction (KinomeScan (DiscoverX)) EUB0000229b PDPK1; conditions: at 10 µM
T2 sequence (whole entry): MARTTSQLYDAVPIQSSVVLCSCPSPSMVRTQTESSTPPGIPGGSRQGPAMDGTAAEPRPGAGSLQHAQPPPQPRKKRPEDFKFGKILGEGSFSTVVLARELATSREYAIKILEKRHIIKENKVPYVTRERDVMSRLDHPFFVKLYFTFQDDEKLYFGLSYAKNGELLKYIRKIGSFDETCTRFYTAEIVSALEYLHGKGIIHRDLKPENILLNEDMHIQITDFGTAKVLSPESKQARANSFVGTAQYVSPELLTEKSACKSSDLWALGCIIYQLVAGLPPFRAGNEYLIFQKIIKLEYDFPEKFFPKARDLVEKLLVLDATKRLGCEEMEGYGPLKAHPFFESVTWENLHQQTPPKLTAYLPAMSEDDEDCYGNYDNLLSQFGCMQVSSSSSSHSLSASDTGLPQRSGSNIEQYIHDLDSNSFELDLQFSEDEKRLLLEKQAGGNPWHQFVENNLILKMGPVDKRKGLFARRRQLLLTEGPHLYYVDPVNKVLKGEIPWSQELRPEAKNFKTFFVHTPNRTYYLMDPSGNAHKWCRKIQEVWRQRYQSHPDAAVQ

[3] = biological target: T3, Cyclin-dependent kinase 11A (Homo sapiens) (UniProt Q9UQ88); experiment: Selectivity interaction (KinomeScan (DiscoverX)) EUB0000655a CDK11A; conditions: at 10 µM
T3 sequence (whole entry): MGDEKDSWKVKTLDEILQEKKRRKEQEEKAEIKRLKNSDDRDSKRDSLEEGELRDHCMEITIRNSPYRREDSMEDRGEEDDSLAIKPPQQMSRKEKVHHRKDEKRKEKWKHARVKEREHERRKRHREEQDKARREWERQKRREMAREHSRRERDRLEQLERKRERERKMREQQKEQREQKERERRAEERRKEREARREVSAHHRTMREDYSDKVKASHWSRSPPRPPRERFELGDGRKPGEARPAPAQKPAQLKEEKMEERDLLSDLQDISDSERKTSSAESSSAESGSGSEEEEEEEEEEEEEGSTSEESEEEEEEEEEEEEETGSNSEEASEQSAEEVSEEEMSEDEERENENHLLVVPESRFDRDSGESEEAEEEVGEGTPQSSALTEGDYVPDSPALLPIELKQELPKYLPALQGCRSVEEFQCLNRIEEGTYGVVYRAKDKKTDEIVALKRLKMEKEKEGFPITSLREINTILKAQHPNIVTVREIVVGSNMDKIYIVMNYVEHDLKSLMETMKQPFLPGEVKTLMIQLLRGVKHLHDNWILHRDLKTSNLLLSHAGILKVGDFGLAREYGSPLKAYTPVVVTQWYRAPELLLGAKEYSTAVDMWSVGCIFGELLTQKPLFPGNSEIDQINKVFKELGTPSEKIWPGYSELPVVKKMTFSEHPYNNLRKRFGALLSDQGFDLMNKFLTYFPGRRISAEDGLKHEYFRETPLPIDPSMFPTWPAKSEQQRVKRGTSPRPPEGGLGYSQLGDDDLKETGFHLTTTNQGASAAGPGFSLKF

[4] = biological target: T4, Dual specificity mitogen-activated protein kinase kinase 6 (Homo sapiens) (UniProt P52564); experiment: Selectivity interaction (KinomeScan (DiscoverX)) EUB0000655a MAP2K6; conditions: at 10 µM
T4 sequence (whole entry): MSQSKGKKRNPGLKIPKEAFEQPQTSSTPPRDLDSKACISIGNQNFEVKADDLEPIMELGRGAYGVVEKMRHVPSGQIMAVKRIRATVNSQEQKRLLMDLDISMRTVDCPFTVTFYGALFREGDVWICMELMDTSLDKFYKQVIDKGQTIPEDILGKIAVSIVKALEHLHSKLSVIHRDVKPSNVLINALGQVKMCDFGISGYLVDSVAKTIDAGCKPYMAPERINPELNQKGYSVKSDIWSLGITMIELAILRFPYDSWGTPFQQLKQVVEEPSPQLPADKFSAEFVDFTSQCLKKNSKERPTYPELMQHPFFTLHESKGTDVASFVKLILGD

[5] = biological target: Calcium/calmodulin-dependent protein kinase type II subunit delta (Homo sapiens) (UniProt Q13557); experiment: Selectivity interaction (SelectScreen profiling (Invitrogen)) EUB0000607a CAMK2D; conditions: at 2 µM
Calcium/calmodulin-dependent protein kinase type II subunit delta (Homo sapiens), sequence (Q13557 whole entry): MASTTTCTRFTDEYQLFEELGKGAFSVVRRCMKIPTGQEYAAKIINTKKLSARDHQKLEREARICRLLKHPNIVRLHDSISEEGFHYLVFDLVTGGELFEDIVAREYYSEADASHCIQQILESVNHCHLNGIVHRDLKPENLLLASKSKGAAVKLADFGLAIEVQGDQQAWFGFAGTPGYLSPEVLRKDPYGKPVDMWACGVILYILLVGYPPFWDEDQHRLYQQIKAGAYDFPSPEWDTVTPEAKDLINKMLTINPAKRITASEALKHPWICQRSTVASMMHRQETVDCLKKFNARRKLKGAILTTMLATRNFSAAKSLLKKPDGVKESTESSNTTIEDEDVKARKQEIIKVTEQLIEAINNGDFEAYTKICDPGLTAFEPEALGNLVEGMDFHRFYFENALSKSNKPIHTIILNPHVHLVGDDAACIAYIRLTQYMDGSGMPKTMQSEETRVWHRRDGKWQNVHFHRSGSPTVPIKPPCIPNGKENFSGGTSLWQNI

With `COc1cc(Nc2nc(C)cc(-c3cnn4nc(OC)ccc34)n2)cc(C(F)(F)F)c1` the % of control [1] was 77%.

Work on `COc1cc(N(C)c2ccnc3ccc(C(F)(F)F)cc23)cc(OC)c1OC` yielded a % binding [2] of 98%.

Compound `CN(C)CCOc1ccc(-c2nc(-c3ccncc3)c(-c3ccc4c(c3)CC/C4=N\O)[nH]2)cc1` has a % of control [3] of 98% and a % of control [4] of 100%.

For `CNC(=O)Nc1ccc(-c2nc(N3CC4CCC(C3)O4)c3cnn(C4CCC5(CC4)OCCO5)c3n2)cc1`, the % of inhibition [5] was 11%.
